Target: T1, human PDE4B1 (Homo sapiens, UniProt Q07343)
T1 construct: host or cells: Sf9 cells
Assay: cAMP HTRF assay to determine the activity of hPDE4B1
Assay type: biochemical
Conditions: for inhibition at 1 µM: Percentage inhibition of PDE4B at 1 μM test concentration; for IC50: dose response measurements with eight concentrations, reported as ranges, read-out: IC50
Summary of the method: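 Sf9-expressed recombinant human PDE4B1 (4.8 U) in Tris-HCl/MgCl2/DTT/Tween 20 buffer pH 7.8, with cAMP at 40 nM final, 30 min at room temperature. Reaction stopped with IBMX 1 mM; remaining cAMP detected by HTRF (665/620 nm ratio). IC50 from eight-point dose-response, n=2.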

T1 sequence (Q07343 whole entry): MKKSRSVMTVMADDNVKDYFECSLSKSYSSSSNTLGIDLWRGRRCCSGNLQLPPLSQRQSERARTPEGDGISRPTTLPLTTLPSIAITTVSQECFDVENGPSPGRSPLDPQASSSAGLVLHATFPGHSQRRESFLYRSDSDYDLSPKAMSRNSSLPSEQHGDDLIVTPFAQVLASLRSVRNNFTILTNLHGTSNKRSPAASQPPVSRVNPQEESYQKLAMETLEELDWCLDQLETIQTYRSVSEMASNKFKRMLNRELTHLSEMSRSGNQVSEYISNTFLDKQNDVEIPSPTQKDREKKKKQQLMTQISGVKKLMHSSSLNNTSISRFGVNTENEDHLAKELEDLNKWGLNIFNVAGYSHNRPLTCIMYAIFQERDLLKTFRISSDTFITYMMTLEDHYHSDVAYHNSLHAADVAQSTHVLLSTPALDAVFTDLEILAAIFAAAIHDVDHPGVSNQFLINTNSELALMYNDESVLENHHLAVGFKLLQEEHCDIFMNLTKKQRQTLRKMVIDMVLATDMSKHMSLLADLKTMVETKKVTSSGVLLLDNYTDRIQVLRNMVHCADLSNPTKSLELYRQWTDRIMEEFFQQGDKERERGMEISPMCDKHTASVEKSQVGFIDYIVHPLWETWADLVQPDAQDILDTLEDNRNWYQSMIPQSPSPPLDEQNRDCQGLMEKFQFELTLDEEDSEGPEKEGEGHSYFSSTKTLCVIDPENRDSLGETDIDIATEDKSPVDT

| SMILES | inhibition at 1 µM | IC50 |
| --- | --- | --- |
| O=C(O)c1ccc2c(c1)oc(=O)n2-c1nc(-c2ccc(Cl)s2)nc2c1CCC2 [Compound No. 1-68, 3-(2-(5-Chlorothiophen-2-yl)-6,7-dihydro-5H-cyclopenta[d]pyrimidin-4-yl)-2-oxo-2,3-dihydrobenzo[d]oxazole-6-carboxylic acid] | 34% |  |
| O=C(O)c1ccc2c(c1)CC(=O)N2c1nc(-c2ccc(Cl)s2)nc2c1CCC2 [Compound No. 1-69, 1-(2-(5-Chlorothiophen-2-yl)-6,7-dihydro-5H-cyclopenta[d]pyrimidin-4-yl)-2-oxoindoline-5-carboxylic acid] | 61% | 100 to 1000 nM |
| O=C(O)c1ccc2c(ccn2-c2nc(-c3ccc(Cl)s3)nc3c2CCC3)c1 [Compound No. 1-70, 1-(2-(5-Chlorothiophen-2-yl)-6,7-dihydro-5H-cyclopenta[d]pyrimidin-4-yl)-1H-indole-5-carboxylic acid] | 61% | 100 to 1000 nM |
| O=C(O)Cc1ccc2c(ccn2-c2nc(-c3ccc(Cl)s3)nc3c2CCC3)c1 [Compound No. 1-71, 2-(1-(2-(5-Chlorothiophen-2-yl)-6,7-dihydro-5H-cyclopenta[d]pyrimidin-4-yl)-1H-indol-5-yl)acetic acid] | 64% | 100 to 1000 nM |
| O=C(O)c1ccc2c(c1)CCN2c1nc(-c2ccc(Cl)s2)nc2c1CCC2 [Compound No. 1-72, 1-(2-(5-Chlorothiophen-2-yl)-6,7-dihydro-5H-cyclopenta[d]pyrimidin-4-yl)indoline-5-carboxylic acid] | 59% | 100 to 1000 nM |
| COC(=O)COc1ccc2c(c1)N(c1nc(-c3ccc(Cl)s3)nc3c1CS(=O)(=O)C3)CC2 [Compound No. 1-77, Methyl 2-((1-(2-(5-chlorothiophen-2-yl)-6,6-dioxido-5,7-dihydrothieno[3,4-d]pyrimidin-4-yl)indolin-6-yl)oxy)acetate] | 62% | 100 to 1000 nM |
| COC(=O)Cc1ccc2c(c1)CCN2c1nc(-c2ccc(Cl)s2)nc2c1CS(=O)(=O)C2 [Compound No. 1-78, Methyl 2-(1-(2-(5-chlorothiophen-2-yl)-6,6-dioxido-5,7-dihydrothieno[3,4-d]pyrimidin-4-yl)indolin-5-yl)acetate] | 25% |  |

Now from value to compound:

| inhibition at 1 µM | IC50 | SMILES |
| --- | --- | --- |
| 61% | 100 to 1000 nM | COc1ccc(-c2nc3c(c(N4C(=O)Cc5cc(CC(=O)O)ccc54)n2)CCC3)cc1Cl [Compound No. 1-66, 2-(1-(2-(3-Chloro-4-methoxyphenyl)-6,7-dihydro-5H-cyclopenta[d]-pyrimidin-4-yl)-2-oxoindolin-5-yl)acetic acid] |
| 80% | 100 to 1000 nM | O=C(O)c1ccc2c(cnn2-c2nc(-c3ccc(Cl)s3)nc3c2CCC3)c1 [Compound No. 1-73, 1-(2-(5-Chlorothiophen-2-yl)-6,7-dihydro-5H-cyclopenta[d]pyrimidin-4-yl)-1H-indazole-5-carboxylic acid] |
| 101% | < 100 nM | NC(=O)c1ccc(-c2nc3c(c(N4CCc5cc(CC(=O)O)ccc54)n2)CCC3)s1 [Compound No. 1-75, 2-(1-(2-(5-Carbamoylthiophen-2-yl)-6,7-dihydro-5H-cyclopenta[d]pyrimidin-4-yl)indolin-5-yl)acetic acid] |
| 88% | 100 to 1000 nM | COC(=O)COc1ccc2c(c1)N(c1nc(-c3ccc(Cl)s3)nc3c1CCC3)CC2 [Compound No. 1-79, Methyl 2-((1-(2-(5-chlorothiophen-2-yl)-6,7-dihydro-5H-cyclopenta[d]pyrimidin-4-yl)indolin-6-yl)oxy)acetate] |
| 108% | < 100 nM | O=C(O)Cc1ccc2c(c1)CCN2c1nc(-c2cc3ccccc3s2)nc2c1C[S+]([O-])C2 (stereo not shown) [Compound No. 1-80, 2-(1-(2-(Benzo[b]thiophen-2-yl)-6-oxido-5,7-dihydrothieno[3,4-d]pyrimidin-4-yl)indolin-5-yl)acetic acid] |
